From US20250304623A1, “PEPTIDES FOR INTRACELLULAR DELIVERY” (UNIVERSIDADE DE SANTIAGO DE COMPOSTELA, priority 2022, published 2025)
Starred links: 1 amine or outer side, 2 acyl side, 3 side chain; linkers in the order of their positions; H or OH if unused. Residues, ends and D or L forms follow the SMILES beside them. Groups on a side chain read outwards from the residue. *: point of attachment. Glutaryl = O=C(CCCC(=O)[*:2])[*:1]; NHNH2 = NN*

What was measured:
Format in all cases: cell-based
[1] = test system: ARPE19 cells expressing EGFP; experiment: Cas9-RNP delivery against EGFP (gene editing, plate reader), ARPE19
Description: (§1) To generate an EGFP expressing HeLa cell line, HeLa cells were transfected with EGFP pDNA (pEGFP-C1, Clontech) and stable transfectants were selected with 400 μg/mL of G-418 (Millipore). Green clones were selected by epifluorescence microscopy and tested for EGFP expression stability through several passages. […] All other EGFP-expressing cell lines were obtained in a similar way from parent non-EGFP-expressing cell lines.
Cells expressing EGFP were seeded in a 96 well plate the day before the experiment at a concentration of 50,000 cell/mL (100 μL/w) in DMEM+10% FBS+1% Gln-Abt. For robotic library screening, the delivery of Cas9-RNP against EGFP (RNP designed to knock-out the gene encoding for the enhanced green fluorescent protein (EGFP)) was performed. For RNP assembly, 9.2 μL of crRNA and 9.2 μL of tracrRNA were mixed in 211.6 μL of Nuclease-Free Duplex Buffer (IDT), incubated for 5 min at 95° C. and slowly cooled at rt (see I. Lostalé-Seijo, et al. Peptide/Cas9 nanostructures for ribonucleoprotein cell membrane transport and gene edition, Chem. Sci., 2017). Cas9 protein was dissolved in DMEM at a final concentration of 4 μM and equal volumes of the RNA complex and Cas9 were mixed and incubated for 5 min at rt. 75 μL of the corresponding amphiphile concentrations were added to 5 μL of RNP at 2 μM. The mixture was shaken for 30 min at room temperature before the addition to the cells. The cell medium was aspirated, and cells were washed twice with PBS. Cells were covered with 30 μL of DMEM and 20 μL of the RNP/amphiphile complexes were added to the cells (final peptide concentrations=2.5, 5 and 10 μM; final Cas9-RNP concentration=50 nM) and incubated for 4 h. After the incubation, the medium was replaced by 100 μL of fresh DMEM supplemented with 10% FBS. The total EGFP fluorescence was quantified after 72 h in a plate reader (FIG. 2, Table 1 (right) and Table 6). All experiments were done in triplicate. […]
(§2) Tables 26-31 show the mean (triplicates) percentage of gene editing, accounted by GFP fluorescence intensity decrease (% of reduction), measured after the transfection of Cas9-RNP by different amphiphiles at different concentrations in a variety of cell lines. Background values, accounted by untreated control cells, were subtracted for processing.

[2] = test system: A549 cells expressing EGFP; experiment: EGFP-targeting siRNA delivery (GFP silencing vs siMOCK), A549; conditions: A549 cells
Description: as §1
Cells expressing EGFP were seeded in a 96 well plate the day before the experiment at a concentration of 50,000 cell/mL (100 μL/w) in DMEM+10% FBS+1% Gln-Abt. For robotic library screening, the delivery of an EGFP-targeting siRNA (EGFP: enhanced green fluorescent protein, Ambion® Silencer® GFP Positive Control siRNA (siGFP) (AM4626)) in six different cell lines expressing EGFP was performed. […] The mixture was shaken for 30 min at room temperature (rt) before the addition to the cells. The cell medium was aspirated, and cells were washed twice with PBS. Finally, 50 μL of the solution of siRNA/amphiphile complexes were added to the cells and incubated for 4 h. After transfection, the medium was replaced by 100 μL of fresh DMEM supplemented with 10% FBS. The fluorescence knockdown was quantified after 72 h in a plate reader, by comparison with cells transfected with a non-targeting siRNA control (siMOCK, Silencer™ Negative Control No. 1 siRNA (siMOCK) (AM4611)). EGFP knockdown was compared with Lipofectamine® RNAiMAX silencing efficiency (30-60% depending on cell line, defined with a numeric value in the below tables). All experiments were done in triplicate.
(§3) Tables 1-7: RLuc (pDNA) or EGFP (mRNA) expression levels were normalized to Lipofectamine reagents (value=1) and expressed as fold-times signal increase. In the case of siRNA, the siRNA treated cells fluorescence was compared with siMOCK control fluorescence, while Cas9-RNP mediated knockout was measured against the fluorescence of untreated cells. In both siRNA and Cas9-RNP, values are expressed as % fluorescence reduction. Amphiphile concentration was 5 μM in all cases. All experiments were performed in triplicate.
as §2, with “20-25” for “26-31”, “GFP-silencing,” for “gene editing,”, “by” for “by GFP”, “relative to a non-targeting siRNA (siMOCK) control,” for “(% of reduction),”, “siRNA” for “Cas9-RNP”

[3] = test system: Hela cells expressing EGFP; experiment: Cas9-RNP delivery against EGFP (gene editing, plate reader), HeLa
Description: as §1
Cells expressing EGFP were seeded in a 96 well plate the day before the experiment at a concentration of 50,000 cell/mL (100 μL/w) in DMEM+10% FBS+1% Gln-Abt. For robotic library screening, the delivery of Cas9-RNP against EGFP (RNP designed to knock-out the gene encoding for the enhanced green fluorescent protein (EGFP)) was performed. For RNP assembly, 9.2 μL of crRNA and 9.2 μL of tracrRNA were mixed in 211.6 μL of Nuclease-Free Duplex Buffer (IDT), incubated for 5 min at 95° C. and slowly cooled at rt (see I. Lostalé-Seijo, et al. Peptide/Cas9 nanostructures for ribonucleoprotein cell membrane transport and gene edition, Chem. Sci., 2017). Cas9 protein was dissolved in DMEM at a final concentration of 4 μM and equal volumes of the RNA complex and Cas9 were mixed and incubated for 5 min at rt. 75 μL of the corresponding amphiphile concentrations were added to 5 μL of RNP at 2 μM. The mixture was shaken for 30 min at room temperature before the addition to the cells. The cell medium was aspirated, and cells were washed twice with PBS. Cells were covered with 30 μL of DMEM and 20 μL of the RNP/amphiphile complexes were added to the cells (final peptide concentrations=2.5, 5 and 10 μM; final Cas9-RNP concentration=50 nM) and incubated for 4 h. After the incubation, the medium was replaced by 100 μL of fresh DMEM supplemented with 10% FBS. The total EGFP fluorescence was quantified after 72 h in a plate reader (FIG. 2, Table 1 (right) and Table 6). All experiments were done in triplicate.
as §3, §2

SMILES: CC(=O)N[C@@H](CCCNC(=N)N)C(=O)N[C@@H](CCCCNC(=O)CCCC(=O)NN)C(=O)N[C@@H](Cc1c[nH]cn1)C(=O)N[C@@H](CCCNC(=N)N)C(=O)N[C@@H](CCCCNC(=O)CCCC(=O)NN)C(=O)N[C@@H](CCCCNC(=O)CCCC(=O)NN)C(=O)N[C@@H](Cc1c[nH]cn1)C(N)=O [7.3(L-H), Ac-RK*HRK*K*H-NH2] (Ac-RK([Glutaryl-NHNH2])HRK([Glutaryl-NHNH2])K([Glutaryl-NHNH2])H-NH2)
- percentage of gene editing, GFP fluorescence intensity decrease (% of reduction) ([1]; Myristoleyl, 5 μM): 19%
- percentage of gene editing, GFP fluorescence intensity decrease (% of reduction) ([1]; Myristoleyl, 15 μM): 12%
- percentage of gene editing, GFP fluorescence intensity decrease (% of reduction) ([1]; Oleyl, 5 μM): 1%
- percentage of gene editing, GFP fluorescence intensity decrease (% of reduction) ([1]; Oleyl, 10 μM): 6%
- percentage of gene editing, GFP fluorescence intensity decrease (% of reduction) ([1]; Oleyl, 15 μM): 15%
- percentage of gene editing, GFP fluorescence intensity decrease (% of reduction) ([1]; Palmitoleyl, 5 μM): 37%
- percentage of gene editing, GFP fluorescence intensity decrease (% of reduction) ([1]; Palmitoleyl, 10 μM): 31%
- percentage of gene editing, GFP fluorescence intensity decrease (% of reduction) ([1]; Petroselinyl, 5 μM): 18%
- percentage of GFP-silencing relative to siMOCK ([2]; Myristoleyl, 5 μM): 18%
- percentage of GFP-silencing relative to siMOCK ([2]; Myristoleyl, 10 μM): 22%
- percentage of GFP-silencing relative to siMOCK ([2]; Myristoleyl, 15 μM): 31%
- percentage of GFP-silencing relative to siMOCK ([2]; Oleyl, 5 μM): 2%
- percentage of GFP-silencing relative to siMOCK ([2]; Oleyl, 10 μM): 14%
- percentage of GFP-silencing relative to siMOCK ([2]; Oleyl, 15 μM): 21%
- percentage of GFP-silencing relative to siMOCK ([2]; Palmitoleyl, 15 μM): 40%
- percentage of GFP-silencing relative to siMOCK ([2]; Petroselinyl, 10 μM): 20%
- percentage of GFP-silencing relative to siMOCK ([2]; Petroselinyl, 15 μM): 52%
- percentage of gene editing, GFP fluorescence intensity decrease (% of reduction) ([3]; Dodecanal, 10 μM, HeLa cells): −8%
- percentage of gene editing, GFP fluorescence intensity decrease (% of reduction) ([3]; Dodecanal, 15 μM, Hela cells): −21%
- percentage of gene editing, GFP fluorescence intensity decrease (% of reduction) ([3]; Myristoleyl, 5 μM, HeLa cells): 39%
- percentage of gene editing, GFP fluorescence intensity decrease (% of reduction) ([3]; Myristoleyl, 10 μM, HeLa cells): 22%
- percentage of gene editing, GFP fluorescence intensity decrease (% of reduction) ([3]; Myristoleyl, 15 μM, Hela cells): 18%
- percentage of gene editing, GFP fluorescence intensity decrease (% of reduction) ([3]; Oleyl, 5 μM, HeLa cells): 16%
- percentage of gene editing, GFP fluorescence intensity decrease (% of reduction) ([3]; Oleyl, 10 μM, HeLa cells): 13%
- percentage of gene editing, GFP fluorescence intensity decrease (% of reduction) ([3]; Oleyl, 15 μM, Hela cells): 22%
- percentage of gene editing, GFP fluorescence intensity decrease (% of reduction) ([3]; Palmitoleyl, 5 μM, HeLa cells): 55%
- percentage of gene editing, GFP fluorescence intensity decrease (% of reduction) ([3]; Palmitoleyl, 10 μM, HeLa cells): 28%
- percentage of gene editing, GFP fluorescence intensity decrease (% of reduction) ([3]; Palmitoleyl, 15 μM, Hela cells): 17%
- percentage of gene editing, GFP fluorescence intensity decrease (% of reduction) ([3]; Petroselinyl, 5 μM, HeLa cells): 46%
- percentage of gene editing, GFP fluorescence intensity decrease (% of reduction) ([3]; Petroselinyl, 10 μM, Hela cells): 14%
